Results on 1 molecule are retold here after paper PMC3082472 (2010).

The test system of the assay is RNA probe (thiol / methylene blue E-AB aptamer) (RNA, aptamer) GGGACUUGGUUUAGGUAAUGAGUCCC
As to the kind of experiment: electrochemical aptamer-based sensor, square wave voltammetry. The settings on record: 100 mM NaCl, 5 mM MgCl2; 20 mM Tris, pH 7.5; aptamer immobilised on gold.

`NC[C@H]1O[C@H](O[C@H]2[C@H](O)[C@@H](O[C@H]3O[C@H](CO)[C@@H](O)[C@H](N)[C@H]3O)[C@H](N)C[C@@H]2N)[C@H](O)[C@@H](O)[C@@H]1O` returned a dissociation constants of 281 µM.
